This note sets out measurements from patent publication US20050176764A1, “Medicine for treating cancer” (KOWA CO., LTD, priority 2002, published 2005).

Common to all, as to type: cell-based
The test system of assay [1] is cultured human cancer cells. Description: Cancer cell growth inhibition, WST-1 colorimetry, overall statement. Particulars: result in words, 48 hours. As for the experimental part: (§1) Cultured human cancer cells were added to a 96-well plate. On the following day, a solution of each of the compounds prepared in Examples 13, 23, 29, 36, and 114 (in five concentrations resulting from 10-fold stepwise dilution: 10^−4, 10^−5, 10^−6, 10^−7, or 10^−8 M) was added, followed by incubation for 48 hours. Subsequently, % growth of the cells was measured through colorimetry by use of a WST-1 (Dojindo) reagent for measurement of cell count. From the measurement data, % growth was calculated by use of the following equation, and 50% growth inhibitory concentration (GI50) was calculated from the dose-response curve of each compound: % growth={[(OD as measured after 48 hours from addition of compound)−(OD at time zero)]/[(OD of control as measured after 48 hours)−(OD at time zero)]}×100.
A general note: Tetrazolium assays rely on reduction of a dye to a coloured formazan, in cell work by metabolically active cells.

The test system of another assay is HCT-15 (colon cancer). Nature of the assay: Cancer cell growth inhibition, WST-1 colorimetry. Particulars: Homo sapiens, HCT-15, 48 hours. As for the experimental part:
as §1

The test system of a further assay is MCF-7 (breast cancer). Description: Cancer cell growth inhibition, WST-1 colorimetry. To be noted: Homo sapiens, MCF7, MCF-7, 48 hours. Here is the method:
as §1

A further assay relates to MKN-74 (stomach cancer). Nature of the assay: Cancer cell growth inhibition, WST-1 colorimetry. To be noted: Homo sapiens, MKN-74, 48 hours. Here is the method: as §1
The test system of a further assay is MKN-45 (stomach cancer). Nature of the assay: Cancer cell growth inhibition, WST-1 colorimetry. To be noted: Homo sapiens, MKN-45, 48 hours. As for the experimental part: as §1
Assay [2] relates to Human umbilical venous endothelial cells (HUVECs). Nature of the assay: Gene expression analysis (GeneChip HuGene FL array) in TNFα-stimulated HUVECs. To be noted: Example 10 at 1 μM, TSA at 10 μM. As for the experimental part:
Human umbilical venous endothelial cells (HUVECs) were placed in 10 cm dishes (3×10^5 cells/dish). Two days thereafter, Trichostatin A (TSA, produced by Upstate) dissolved in dimethyl sulfoxide (DMSO) and the compound prepared in Example 10 dissolved in DMSO were individually added to a final concentrations of 10 μM and 1 μM, respectively. Each sample was stimulated with TNFα (final concentration: 10 ng/mL, Genzyme-Techne). Four hours later, total RNA was extracted with ISOGEN (Nippon Gene Co., Ltd.). The subsequent procedure was performed in accordance with the manufacturer's protocol (Affymetrix). From the thus obtained total RNA, mRNA was purified by a conventional method. cDNA was synthesized from the purified mRNA, and then biotin-labeled cRNA was synthesized by in vitro transcription. The cRNA was purified and subjected to heat treatment for fragmentation. The fragmented cRNA was used in gene expression analysis.
Method of gene expression analysis: The thus-prepared fragmented cRNA was injected to a HuGene human FL array (Affymetrix), and allowed to hybridize for 16 hours at 45° C. After washing, streptavidin labeled with phycoerythrin, and biotinylated anti-streptavidin antibody were added to each sample in order to cause reaction. Gene expression information was read by use of a dedicated scanner for GeneChip™ (Hewlett Packard). The thus-obtained information was analyzed with GeneChip Software (Affymetrix) for comparison in terms of level of expression.

Where [3] appears, read: out of 52 genes increased twice or more by TNFα.

The GI50 is the concentration giving 50% growth inhibition.

Structures can show the parent of a compound that is named as a salt.

Take `COc1ccc(N(Cc2cncc(-c3cc(OC)c(OC)c(OC)c3)c2)C2CCN(Cc3ccnc(-c4cc(OC)c(OC)c(OC)c4)c3)CC2)cc1` [Example 13, 4-[N-(4-methoxyphenyl)-N-[[5-(3,4,5-trimethoxyphenyl)pyridin-3-yl]methyl]amino]-1-[[2-(3,4,5-trimethoxyphenyl)pyridin-4-yl]methyl]piperidine Trihydrochloride]: the “growth inhibitory effect on cultured human cancer cells” value in assay [1] is “strong growth inhibitory effect”. The GI50 in the assay with HCT-15 (colon cancer) is 800 nM; with MCF-7 (breast cancer) it was 700 nM; with MKN-74 (stomach cancer) it was 700 nM; in the assay with MKN-45 (stomach cancer), 3000 nM.
Regarding `COc1cc(OC)cc(N(Cc2ccnc(-c3cc(OC)c(OC)c(OC)c3)c2)C2CCN(Cc3ccnc(-c4cc(OC)c(OC)c(OC)c4)c3)CC2)c1` [Example 23, 4-[N-(3,5-dimethoxyphenyl)-N-[[2-(3,4,5-trimethoxyphenyl)pyridin-4-yl]methyl]amino]-1-[[2-(3,4,5-trimethoxyphenyl)pyridin-4-yl]methyl]piperidine Trihydrochloride], the “growth inhibitory effect on cultured human cancer cells” value in assay [1] is recorded as “strong growth inhibitory effect”. Further, the GI50 in the assay on HCT-15 (colon cancer) came to 900 nM; in the assay on MCF-7 (breast cancer), 600 nM; in the assay with MKN-74 (stomach cancer) it was 700 nM; in the assay on MKN-45 (stomach cancer) it was 4000 nM.
The corresponding values for `COc1cc(-c2cc(CN3CCC(N(Cc4ccnc(-c5cc(OC)c(OC)c(OC)c5)c4)c4ccc5c(c4)OCO5)CC3)ccn2)cc(OC)c1OC` [Example 29, 4-[N-(3,4-methylenedioxyphenyl)-N-[[2-(3,4,5-trimethoxyphenyl)pyridin-4-yl]methyl]amino]-1-[[2-(3,4,5-trimethoxyphenyl)pyridin-4-yl]methyl] piperidine Trihydrochloride] are “strong growth inhibitory effect”, 800 nM, 700 nM, 400 nM and 3000 nM.
The corresponding values for `COc1cc(-c2cc(CN3CCC(N(C)Cc4ccnc(-c5cc(OC)c(OC)c(OC)c5)c4)CC3)ccn2)cc(OC)c1OC` [Example 36, 4-[N-methyl-N-[[2-(3,4,5-trimethoxyphenyl)pyridin-4-yl]methyl]amino]-1-[[2-(3,4,5-trimethoxyphenyl)pyridin-4-yl]methyl]piperidine Tetrahydrochloride] are “strong growth inhibitory effect”, 1000 nM, 700 nM, 600 nM and 2000 nM.
The corresponding values for `COc1cc(-c2cncc(CN(c3ccc(SC)cc3)C3CCN(Cc4ccnc(-c5cc(OC)c(OC)c(OC)c5)c4)CC3)c2)cc(OC)c1OC` [Example 114] are “strong growth inhibitory effect”, 800 nM, 600 nM, 200 nM and 2000 nM.
As to `CC(/C=C/C(=O)NO)=C\[C@@H](C)C(=O)c1ccc(N(C)C)cc1` [TSA, Trichostatin A, reference compound], in assay [2] (TNFα 10 ng/mL, 4 h), the “mRNA expression level of ABC transporter B2” value is 66, the “mRNA expression level of B94” value is 924, the “mRNA expression level of BCL3” value was 198 and the “mRNA expression level of Cox-2” value was 30. In assay [2] (TNFα 10 ng/mL, 4 h), the “mRNA expression level of EphrinA1” value is recorded as 113, the “mRNA expression level of Gro1” value is 855, the “mRNA expression level of I kappa B alpha” value is 1363 and the “mRNA expression level of IAP homolog B” value is recorded as 99. For the same compound, in assay [2] (TNFα 10 ng/mL, 4 h), the “mRNA expression level of ICAM-1” value came out at 2303, the “mRNA expression level of IFNGR2” value is on record as 209, the “mRNA expression level of IL-7R” value was determined as 44 and the “mRNA expression level of M-Ras-regulated GEF” value stood at 39. Also, in assay [2] (TNFα 10 ng/mL, 4 h), the “mRNA expression level of MCP-1” value was 46, the “mRNA expression level of Na/K-ATPase beta-1” value was determined as 148, the “mRNA expression level of Nef associated factor 1” value is recorded as 396 and the “mRNA expression level of OB-cadherin-2” value is 62. In addition, in assay [2] (TNFα 10 ng/mL, 4 h), the “mRNA expression level of RDC1” value was 21, the “mRNA expression level of Spliceosomal Protein Sap 49” value was 79, the “mRNA expression level of TRAF1” value came to 262 and the “mRNA expression level of VCAM-1” value turned out to be 96. In addition, in assay [2] (TNFα 10 ng/mL, 4 h), the “mRNA expression level of beta-galactoside alpha-2; 6-sialyltransferase” value came out at 19, the “mRNA expression level of caspase-like apoptosis regulatory protein 2 (clarp)” value is 50, the “mRNA expression level of cytoplasmic antiproteinase 2 (CAP2)” value worked out at 37 and the “mRNA expression level of ets-2” value is reported as 38. Further, in assay [2] (TNFα 10 ng/mL, 4 h), the “mRNA expression level of exodus-1” value came to 1206, the “mRNA expression level of fractalkine” value was found to be 38, the “mRNA expression level of junB” value turned out to be 123 and the “mRNA expression level of lymphotoxin beta” value is recorded as −40. Besides, in assay [2] (TNFα 10 ng/mL, 4 h), the “mRNA expression level of metalloproteinase stromelysin-2” value was determined as 69, the “mRNA expression level of ninjurin1” value turned out to be 150 and the “mRNA expression level of p50-NF-kappa B homolog” value was determined as 57. Besides, in assay [2] (setting [3]), the “number of genes whose expression was enhanced” value was found to be 6 genes and the “number of genes whose expression was inhibited” value is given as 25 genes.
